Assay type in all cases: functional
Experiment [1] in a line: Inhibition of tumor growth in 6C3HED lymphosarcoma inoculated mice following 150 mg/kg p.o. o.d. The conditions noted are these: Mus musculus, route oral.
The test system of experiment [2] is Mus musculus. As to the kind of experiment: Percent inhibition is the ratio of tumor weight of treated animals at a dose 80 mg/kg given daily to 8 mice perorally versus the untreated control mice infected with 6C3HED lymphosarcoma. The conditions noted are these: route oral.
Experiment [3] deals with Mus musculus. The experiment in a line: Percent inhibition is the ratio of tumor weight of treated animals at a dose 160 mg/kg given daily to 8 mice perorally versus the untreated control mice infected with 6C3HED lymphosarcoma. The conditions noted are these: route oral.

Consider 23 compounds from ChEMBL document CHEMBL1126468, “Antineoplastic bicyclicsulfonylureas” (Bioorg Med Chem Lett, 1992).

The inhibition in vivo is the change of the read-out against control, counted positive when it falls. On to `O=C(Nc1ccc(Cl)cc1)NS(=O)(=O)c1ccc2cc[nH]c2c1`, for which, in experiment [1], the inhibition in vivo at 150 mg/kg came to 37%. Take `O=C(Nc1ccc(Cl)cc1)NS(=O)(=O)c1ccc2occc2c1`: the inhibition in vivo at 150 mg/kg in experiment [1] amounted to 100%. `Cc1ccc2sc(S(=O)(=O)NC(=O)Nc3ccc(Cl)cc3)cc2c1` displayed an inhibition in vivo at 150 mg/kg in experiment [1] of 10%. For the compound `COc1cc(S(=O)(=O)NC(=O)Nc2ccc(Cl)cc2)cc2ccoc12`, the inhibition in vivo at 150 mg/kg in experiment [1] amounted to 51%.

Take `Cc1ccc(NC(=O)NS(=O)(=O)c2ccc3occc3c2)cc1`: the inhibition in vivo at 150 mg/kg in experiment [1] is 84%.

In experiment [1], `Cc1cccc2cc(S(=O)(=O)NC(=O)Nc3ccc(Cl)cc3)oc12` came in with an inhibition in vivo at 150 mg/kg of 21%. As to `O=C(Nc1ccc(Cl)cc1)NS(=O)(=O)c1cccc2occc12`, 150 mg/kg produced 84% inhibition in vivo in experiment [1]. The compound `O=C(Nc1ccc(Cl)cc1)NS(=O)(=O)c1cc2ccccc2[nH]1` registered an inhibition in vivo at 150 mg/kg in experiment [1] of 26%.

Take `O=C(Nc1ccc(Cl)cc1)NS(=O)(=O)c1csc2ccccc12`: in experiment [1], the inhibition in vivo at 150 mg/kg stood at 43%. Take `O=C(Nc1ccc(Cl)cc1)NS(=O)(=O)c1cc2cc(Cl)ccc2o1`: in experiment [1], the inhibition in vivo at 150 mg/kg amounted to 40%.

In experiment [1], `Cc1ccc2oc(S(=O)(=O)NC(=O)Nc3ccc(Cl)cc3)cc2c1` yielded an inhibition in vivo at 150 mg/kg of 6%. `O=C(Nc1ccc(Cl)cc1)NS(=O)(=O)c1ccc2sccc2c1`: the inhibition in vivo at 80 mg/kg in experiment [2] stood at 44%. Turning to `Cc1cc2cc(S(=O)(=O)NC(=O)Nc3ccc(Cl)cc3)ccc2o1`, the inhibition in vivo at 150 mg/kg in experiment [1] is 57%. `Cc1ccc(NC(=O)NS(=O)(=O)c2cc3ccccc3o2)cc1` showed an inhibition in vivo at 150 mg/kg in experiment [1] of 11%. On the same count and under the same terms, under `O=C(Nc1ccc(Cl)cc1)NS(=O)(=O)c1cc2ccccc2o1` stands 84%. For the compound `O=C(Nc1ccc(Br)cc1)NS(=O)(=O)c1cc2ccccc2o1`, in experiment [1], the inhibition in vivo at 150 mg/kg is 48%.

In the case of `O=C(Nc1ccc(Cl)cc1)NS(=O)(=O)c1ccc2ccoc2c1`, in experiment [3], the inhibition in vivo at 160 mg/kg was found to be 100%. With `O=C(Nc1ccc(Cl)c(Cl)c1)NS(=O)(=O)c1cc2ccccc2o1`, testing at 150 mg/kg in experiment [1] gave an inhibition in vivo of 28%.

Compound `COc1ccc2oc(S(=O)(=O)NC(=O)Nc3ccc(Cl)cc3)cc2c1` gave an inhibition in vivo at 150 mg/kg in experiment [1] of 25%.

Compound `O=C(Nc1ccc(Cl)cc1)NS(=O)(=O)c1cc2cccc(Br)c2o1` came in with an inhibition in vivo at 150 mg/kg in experiment [1] of 18%.

Turning to `Cc1coc2ccc(S(=O)(=O)NC(=O)Nc3ccc(Cl)cc3)cc12`, at 150 mg/kg the inhibition in vivo in experiment [1] was 44%. `Cc1cc(S(=O)(=O)NC(=O)Nc2ccc(Cl)cc2)cc2ccoc12`: the inhibition in vivo at 150 mg/kg in experiment [1] was determined as 89%. Compound `O=C(Nc1ccc(Cl)cc1)NS(=O)(=O)c1cc2ccccc2s1` came in with an inhibition in vivo at 150 mg/kg in experiment [1] of 47%.
